SMILES strings stand for the structures.

What is called IC50 is the concentration that inhibits the measured activity by half.

Chain of recombinant Human Phosphodiesterase B2 (PDE4B2) (Q07343 1-564 isoform Q07343-2): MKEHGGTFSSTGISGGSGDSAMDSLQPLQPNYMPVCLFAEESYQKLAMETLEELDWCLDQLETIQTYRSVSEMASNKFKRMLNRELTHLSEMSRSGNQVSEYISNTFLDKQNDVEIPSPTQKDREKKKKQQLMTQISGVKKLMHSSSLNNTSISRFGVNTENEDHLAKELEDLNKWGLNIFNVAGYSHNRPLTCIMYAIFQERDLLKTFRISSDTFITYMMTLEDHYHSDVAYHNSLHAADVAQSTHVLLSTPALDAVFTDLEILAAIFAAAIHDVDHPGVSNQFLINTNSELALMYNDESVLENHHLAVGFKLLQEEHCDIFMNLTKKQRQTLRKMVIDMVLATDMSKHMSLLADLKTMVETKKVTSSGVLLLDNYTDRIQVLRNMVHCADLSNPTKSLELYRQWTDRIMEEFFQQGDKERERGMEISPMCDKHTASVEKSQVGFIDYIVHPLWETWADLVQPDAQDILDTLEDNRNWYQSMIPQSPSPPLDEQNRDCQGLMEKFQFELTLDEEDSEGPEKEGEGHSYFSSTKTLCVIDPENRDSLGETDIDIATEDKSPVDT

The target in this test is recombinant Human Phosphodiesterase B2 (PDE4B2) (Homo sapiens, UniProt Q07343). In words: Human Phosphodiesterase B2 Alpha Screen Assay. In kind it is biochemical. As to conditions: cAMP substrate, Alpha Screen cAMP kit, 60 minutes at room temperature. The method, then:
Human Phosphodiesterase B2 Alpha Screen Assay
The assay uses recombinant Human Phosphodiesterase B2 (PDE4B2) produced in house (PrAZL0133), stored at −20° C. The substrate uses cAMP, part of the Alpha Screen cAMP kit (Perkin Elmer, Cat# 6760625M), stored at 4° C. The Alpha Screen kit also includes biotinylated cAMP, acceptor and donor beads.
The assay additions were as follows: Test compounds and controls were added to white 384-well flat-bottom plates (Greiner, Cat# 781075), 0.2 μl in 100% DMSO, followed by 10 μl PDE4B2 in reaction buffer. The reaction buffer constitution was: 50 mM Tris (pH 7.5), 8.3 mM MgCl2, 1.7 mM EGTA and 0.01% (w/v) Brij®35. The enzyme and the compounds were incubated at room temperature for 15 minutes. Then 10 μl cAMP in reaction buffer was added. The assay was stopped after 60 minutes incubation at room temperature by adding 10 μl acceptor beads in detection buffer with 40 mM EDTA. The detection buffer constitution was: 5 mM Tris (pH 7.5), 0.1% (w/v) BSA and 0.1% (v/v) Tween 20. This addition followed by an addition of 10 μl donor beads in detection buffer, with biotinylated cAMP. The plates were then incubated, dark at room temperature, for 5 hours followed by measurement on a Fusion™-α analyser. IC50 values (presented in Table 1) were determined using Xlfit curve fitting using model 205.
Regarding `O=C(N[C@H]1CC[C@@H](n2c(=O)c3cc(F)cnc3n(-c3ccc(F)c(F)c3)c2=O)CC1)c1cc(CO)ccc1O` [Example 1, N-{cis-4-[1-(3,4-difluorophenyl)-6-fluoro-2,4-dioxo-1,4-dihydropyrido[2,3-d]pyrimidin-3(2H)-yl]cyclohexyl}-2-hydroxy-5-(hydroxymethyl)benzamide], the IC50 is 4.9 nM.

Consider `O=C([C@H](O)c1ccccc1)N1CC[C@H](n2c(=O)c3cc(F)cnc3n(-c3ccc(F)c(F)c3)c2=O)C1` [Example 84, 1-(3,4-difluorophenyl)-6-fluoro-3-{(3S)-1-[(2R)-2-hydroxy-2-phenylacetyl]pyrrolidin-3-yl}pyrido[2,3-d]pyrimidine-2,4(1H,3H)-dione], for which the IC50 was 57.3 nM.

With `COC(=O)c1cccc(-n2c(=O)n([C@H]3CC[C@@H](NC(=O)C(C)(C)C)CC3)c(=O)c3cc(F)cnc32)c1` [Example 64, methyl 3-[3-{cis-4-[(2,2-dimethylpropanoyl)amino]cyclohexyl}-6-fluoro-2,4-dioxo-3,4-dihydropyrido[2,3-d]pyrimidin-1(2H)-yl]benzoate], the IC50 was determined as 4.4 nM.

`O=C(CO)N[C@H]1CC[C@@H](n2c(=O)c3cc(F)cnc3n(-c3ccc(F)c(F)c3)c2=O)CC1` [Example 3, N-{cis-4-[1-(3,4-difluorophenyl)-6-fluoro-2,4-dioxo-1,4-dihydropyrido[2,3-d]pyrimidin-3(2H)-yl]cyclohexyl}-2-hydroxyacetamide]: the IC50 was found to be 16.3 nM.

For the compound `COC(=O)c1ccc(C(=O)N[C@H]2CC[C@@H](n3c(=O)c4cc(F)cnc4n(-c4ccc(F)c(F)c4)c3=O)CC2)cc1` [Example 25, methyl 4-[({cis-4-[1-(3,4-difluorophenyl)-6-fluoro-2,4-dioxo-1,4-dihydropyrido[2,3-d]pyrimidin-3(2H)-yl]cyclohexyl}amino)carbonyl]benzoate], the IC50 came to 1.9 nM.

As for `Cc1ccc(O)c(C(=O)N[C@H]2CC[C@@H](N3C(=O)c4cc(F)cnc4N(c4ccc(F)c(F)c4)[S+]3[O-])CC2)c1` (relative stereo) [Example 46, N-{cis-4-[1-(3,4-Difluorophenyl)-6-fluoro-2-oxido-4-oxo-1,4-dihydro-3H-pyrido[2,3-c][1,2,6]thiadiazin-3-yl]cyclohexyl}-2-hydroxy-5-methylbenzamide], the IC50 was found to be 129 nM.

On to `CS(=O)(=O)c1cccc(-n2c(=O)n([C@H]3CC[C@@H](NC(=O)C4CC4)CC3)c(=O)c3cc(F)cnc32)c1` [Example 71, N-{cis-4-[6-fluoro-1-[3-(methylsulfonyl)phenyl]-2,4-dioxo-1,4-dihydropyrido[2,3-d]pyrimidin-3(2H)-yl]cyclohexyl}cyclopropanecarboxamide], for which the IC50 came out at 41.2 nM.

With `COC(=O)c1cccc(-n2c(=O)n([C@H]3CC[C@@H](NC(=O)C4CCC4)CC3)c(=O)c3cc(F)cnc32)c1` [Example 61, methyl 3-[3-{cis-4-[(cyclobutylcarbonyl)amino]cyclohexyl}-6-fluoro-2,4-dioxo-3,4-dihydropyrido[2,3-d]pyrimidin-1(2H)-yl]benzoate], the concentration for half-maximal inhibition (IC50) worked out at 5.2 nM.

For `COC(=O)c1cccc(-n2c(=O)n([C@H]3CC[C@@H](NC(=O)c4cccs4)CC3)c(=O)c3cc(F)cnc32)c1` [Example 66, methyl 3-[6-fluoro-2,4-dioxo-3-{cis-4-[(2-thienylcarbonyl)amino]cyclohexyl}-3,4-dihydropyrido[2,3-d]pyrimidin-1(2H)-yl]benzoate], the IC50 was 4.8 nM.

Take `COC(=O)c1cccc(-n2c(=O)n([C@H]3CC[C@@H](NC(=O)C4CC4)CC3)c(=O)c3cc(F)cnc32)c1` [Example 70, methyl 3-[3-{cis-4-[(cyclopropylcarbonyl)amino]cyclohexyl}-6-fluoro-2,4-dioxo-3,4-dihydropyrido[2,3-d]pyrimidin-1(2H)-yl]benzoate]: the IC50 is 6.6 nM.

Take `COC(=O)c1cccc(-n2c(=O)n([C@H]3CC[C@@H](NC(=O)c4cc(C)ccc4O)CC3)c(=O)c3cc(F)cnc32)c1` [Example 45, methyl 3-[6-fluoro-3-{cis-4-[(2-hydroxy-5-methylbenzoyl)amino]cyclohexyl}-2,4-dioxo-3,4-dihydropyrido[2,3-d]pyrimidin-1(2H)-yl]benzoate]: the 50% inhibitory concentration (IC50) was less than 16 nM.

For `CC(C)C[C@H](O)C(=O)N[C@H]1CC[C@@H](n2c(=O)c3cc(F)cnc3n(-c3ccc(F)c(F)c3)c2=O)CC1` [Example 21, (2S)-N-{cis-4-[1-(3,4-difluorophenyl)-6-fluoro-2,4-dioxo-1,4-dihydropyrido[2,3-d]pyrimidin-3(2H)-yl]cyclohexyl}-2-hydroxy-4-methylpentanamide], the IC50 turned out to be 3.6 nM.

For `O=C(CCN1CCOCC1)N[C@H]1CC[C@@H](n2c(=O)c3cc(F)cnc3n(-c3ccc(F)c(F)c3)c2=O)CC1` [Example 100, N-{cis-4-[1-(3,4-difluorophenyl)-6-fluoro-2,4-dioxo-1,4-dihydropyrido[2,3-d]pyrimidin-3(2H)-yl]cyclohexyl}-3-morpholin-4-ylpropanamide], the IC50 is 2.12 nM.

Consider `O=C(N[C@H]1CC[C@@H](n2c(=O)c3cc(F)cnc3n(-c3ccc(F)c(F)c3)c2=O)CC1)c1cc(F)ccc1O` [Example 20, N-{cis-4-[1-(3,4-difluorophenyl)-6-fluoro-2,4-dioxo-1,4-dihydropyrido[2,3-d]pyrimidin-3(2H)-yl]cyclohexyl}-5-fluoro-2-hydroxybenzamide], for which the IC50 worked out at 3.6 nM.

Regarding `O=C(c1cc(CO)ccc1O)N1CC[C@@H](n2c(=O)c3cc(F)cnc3n(-c3ccc(F)c(F)c3)c2=O)C1` [Example 82, 1-(3,4-difluorophenyl)-6-fluoro-3-{(3R)-1-[2-hydroxy-5-(hydroxymethyl)benzoyl]pyrrolidin-3-yl}pyrido[2,3-d]pyrimidine-2,4(1H,3H)-dione], the IC50 stood at 71.8 nM.

Turning to `O=C(N[C@H]1CC[C@@H](n2c(=O)c3cc(F)cnc3n(-c3ccc(F)c(F)c3)c2=O)CC1)c1cn2ccccc2n1` [Example 33, N-{cis-4-[1-(3,4-difluorophenyl)-6-fluoro-2,4-dioxo-1,4-dihydropyrido[2,3-d]pyrimidin-3(2H)-yl]cyclohexyl}imidazo[1,2-a]pyridine-2-carboxamide], the IC50 is 0.5 nM.

As to `Cn1cnc(C(=O)N[C@H]2CC[C@@H](n3c(=O)c4cc(F)cnc4n(-c4ccc(F)c(F)c4)c3=O)CC2)c1` [Example 97, N-{cis-4-[1-(3,4-difluorophenyl)-6-fluoro-2,4-dioxo-1,4-dihydropyrido[2,3-d]pyrimidin-3(2H)-yl]cyclohexyl}-1-methyl-1H-imidazole-4-carboxamide], the IC50 amounted to 2.18 nM.

For `O=C([C@H](O)c1ccccc1)N1CC[C@@H](n2c(=O)c3cc(F)cnc3n(-c3ccc(F)c(F)c3)c2=O)C1` [Example 80, 1-(3,4-difluorophenyl)-6-fluoro-3-{(3R)-1-[(2R)-2-hydroxy-2-phenylacetyl]pyrrolidin-3-yl}pyrido[2,3-d]pyrimidine-2,4(1H,3H)-dione], the IC50 came out at 73.3 nM.

As to `O=C(N[C@H]1CC[C@@H](n2c(=O)c3cc(F)cnc3n(-c3ccc(F)c(F)c3)c2=O)CC1)c1cc[nH]c1` [Example 96, N-{cis-4-[1-(3,4-difluorophenyl)-6-fluoro-2,4-dioxo-1,4-dihydropyrido[2,3-d]pyrimidin-3(2H)-yl]cyclohexyl}-1H-pyrrole-3-carboxamide], the 50% inhibitory concentration (IC50) was 6.68 nM.

Regarding `COC(=O)c1cccc(-n2c(=O)n([C@H]3CC[C@@H](NC(=O)C(C)C)CC3)c(=O)c3cc(F)cnc32)c1` [Example 62, methyl 3-[6-fluoro-3-[cis-4-(isobutyrylamino)cyclohexyl]-2,4-dioxo-3,4-dihydropyrido[2,3-d]pyrimidin-1(2H)-yl]benzoate], the IC50 is 6.3 nM.

On to `Cc1ccc(O)c(C(=O)N[C@H]2CC[C@@H](n3c(=O)c4cc(F)cnc4n(-c4ccc(F)c(F)c4)c3=O)CC2)c1` [Example 72, N-{cis-4-[1-(3,4-difluorophenyl)-6-fluoro-2,4-dioxo-1,4-dihydropyrido[2,3-d]pyrimidin-3(2H)-yl]cyclohexyl}-2-hydroxy-5-methylbenzamide], for which the 50% inhibitory concentration (IC50) was 2.3 nM.

Turning to `COc1cccc(O)c1C(=O)N[C@H]1CC[C@@H](n2c(=O)c3cc(F)cnc3n(-c3ccc(F)c(F)c3)c2=O)CC1` [Example 16, N-{cis-4-[1-(3,4-difluorophenyl)-6-fluoro-2,4-dioxo-1,4-dihydropyrido[2,3-d]pyrimidin-3(2H)-yl]cyclohexyl}-2-hydroxy-6-methoxybenzamide], the IC50 is 2.1 nM.

`O=C(N[C@H]1CC[C@@H](n2c(=O)c3cc(F)cnc3n(-c3ccc(F)c(F)c3)c2=O)CC1)c1nc2ncccn2n1` [Example 107, N-{cis-4-[1-(3,4-difluorophenyl)-6-fluoro-2,4-dioxo-1,4-dihydropyrido[2,3-d]pyrimidin-3(2H)-yl]cyclohexyl}[1,2,4]triazolo[1,5-a]pyrimidine-2-carboxamide]: the IC50 amounted to 30.1 nM.

In the case of `COC(=O)c1cccc(-n2c(=O)n([C@H]3CC[C@@H](NC(=O)c4cc5ccccn5n4)CC3)c(=O)c3cc(F)cnc32)c1` [Example 68, methyl 3-[6-fluoro-2,4-dioxo-3-{cis-4-[(pyrazolo[1,5-a]pyridin-2-ylcarbonyl)amino]cyclohexyl}-3,4-dihydropyrido[2,3-d]pyrimidin-1(2H)-yl]benzoate], the concentration for half-maximal inhibition (IC50) turned out to be 0.6 nM.

The record behind these values is patent US20080227797A1, “Pyridopyrimidine Derivatives as Pde4 Inhibitors for the Treatment of Inflammatory and Immune Diseases” (ASTRAZENECA AB, priority 2005, published 2008).
